{"source": "ChEMBL document CHEMBL4680150", "about": "“Design, synthesis and biological evaluation of vincamine derivatives as potential pancreatic β-cells protective agents for the treatment of type 2 diabetes mellitus” (Eur J Med Chem, 2020)", "key": {"INS-1 832/13 [1]": {"system": "INS-1 832/13", "test": "Activation of PI3K/Akt signalling pathway in STZ-induced rat INS-1 832/13 cells assessed as increase in phosphorylation of FOX01 at Ser256 residue at 5 to 20 uM after 24 hrs by Western blot analysis", "settings": "filed as activator, dose 5-20 µM"}, "INS1(832/13) [2]": {"system": "INS1(832/13)", "test": "Cytoprotective activity in rat INS-1 832/13 cells assessed as inhibition of STZ-induced apoptosis at 20 uM incubated for 24 hrs by MTT assay relative to control", "type": "functional"}, "INS1(832/13) [3]": {"system": "INS1(832/13)", "test": "Cytoprotective activity in rat INS-1 832/13 cells assessed as inhibition of STZ-induced apoptosis incubated for 24 hrs by MTT assay", "type": "functional, cell-based", "settings": "INS-1 832/13, 24 h"}, "INS1(832/13) [4]": {"system": "INS1(832/13)", "test": "Potency index, ratio of vincamine EC50 to test compound EC50 for cytoprotective activity in rat INS-1 832/13 cells assessed as inhibition of STZ-induced apoptosis", "type": "functional"}, "INS1(832/13) [5]": {"system": "INS1(832/13)", "test": "Cytoprotective activity against STZ-induced toxicity in rat INS-1 832/13 cells at 10 uM incubated for 24 hrs by MTT assay", "type": "functional, cell-based"}, "INS1(832/13) [6]": {"system": "INS1(832/13)", "test": "Cytoprotective activity against STZ-induced toxicity in rat INS-1 832/13 cells assessed as mass of apoptotic cells at 20 uM by Annexin V-FITC staining based flow cytometric analysis (reference value: 40.8%)", "type": "functional"}, "INS1(832/13) [7]": {"system": "INS1(832/13)", "test": "Cytoprotective activity against STZ-induced toxicity in rat INS-1 832/13 cells assessed as mass of apoptotic cells at 5 uM by Annexin V-FITC staining based flow cytometric analysis (reference value: 40.8%)", "type": "functional"}, "INS1(832/13) [8]": {"system": "INS1(832/13)", "test": "Cytoprotective activity against STZ-induced toxicity in rat INS-1 832/13 cells assessed as mass of apoptotic cells at 10 uM by Annexin V-FITC staining based flow cytometric analysis (reference value: 40.8%)", "type": "functional"}, "INS-1 832/13 [9]": {"system": "INS-1 832/13", "test": "Activation of AKT in STZ-induced rat INS-1 832/13 cells assessed as increase in Akt phosphorylation at 5 to 20 uM after 24 hrs by AlphaLISA assay", "settings": "filed as activator, dose 5-20 µM"}, "INS-1 832/13 [10]": {"system": "INS-1 832/13", "test": "Activation of AKT in STZ-induced rat INS-1 832/13 cells assessed as increase in Akt phosphorylation at 5 to 20 uM after 24 hrs by Western blot analysis", "settings": "filed as activator, dose 5-20 µM"}, "INS1(832/13) [11]": {"system": "INS1(832/13)", "test": "Cytoprotective activity in rat INS-1 832/13 cells assessed as inhibition of STZ-induced apoptosis at 20 uM incubated for 24 hrs in presence of wortmannin by MTT assay", "type": "functional, cell-based"}, "INS-1 832/13 [12]": {"system": "INS-1 832/13", "test": "Activation of AKT in STZ-induced rat INS-1 832/13 cells assessed as increase in Akt phosphorylation at 20 uM after 24 hrs in presence of wortmannin by Western blot analysis"}, "INS-1 832/13 [13]": {"system": "INS-1 832/13", "test": "Activation of PI3K/Akt signalling pathway in STZ-induced rat INS-1 832/13 cells assessed as increase in phosphorylation of GSK3beta at Ser9 residue at 5 to 20 uM after 24 hrs by Western blot analysis", "settings": "filed as activator, dose 5-20 µM"}, "INS-1 832/13 [14]": {"system": "INS-1 832/13", "test": "Activation of PI3K/Akt signalling pathway in STZ-induced rat INS-1 832/13 cells assessed as decrease in caspase 9 protein expression at 5 to 20 uM after 24 hrs by Western blot analysis", "settings": "filed as activator, dose 5-20 µM"}, "INS-1 832/13 [15]": {"system": "INS-1 832/13", "test": "Activation of PI3K/Akt signalling pathway in STZ-induced rat INS-1 832/13 cells assessed as decrease in caspase 3 protein expression at 5 to 20 uM after 24 hrs by Western blot analysis", "settings": "filed as activator, dose 5-20 µM"}, "INS-1 832/13 [16]": {"system": "INS-1 832/13", "test": "Activation of PI3K/Akt signalling pathway in STZ-induced rat INS-1 832/13 cells assessed as decrease in cleaved-caspase 3 protein expression at 5 to 20 uM after 24 hrs by Western blot analysis", "settings": "filed as activator, dose 5-20 µM"}, "INS-1 832/13 [17]": {"system": "INS-1 832/13", "test": "Activation of PI3K/Akt signalling pathway in STZ-induced rat INS-1 832/13 cells assessed as decrease in Bim mRNA expression at 5 to 20 uM after 24 hrs by RT-PCR analysis", "settings": "filed as activator, dose 5-20 µM"}, "INS-1 832/13 [18]": {"system": "INS-1 832/13", "test": "Activation of PI3K/Akt signalling pathway in STZ-induced rat INS-1 832/13 cells assessed as decrease in p21 mRNA expression at 5 to 20 uM after 24 hrs by RT-PCR analysis", "settings": "filed as activator, dose 5-20 µM"}, "INS1(832/13) [19]": {"system": "INS1(832/13)", "test": "Cytoprotective activity against STZ-induced rat INS-1 832/13 cells assessed as increase in IRS2 protein expression at 5 to 20 uM after 24 hrs Western blot analysis", "type": "functional, cell-based", "settings": "dose 5-20 µM"}, "INS1(832/13) [20]": {"system": "INS1(832/13)", "test": "Cytoprotective activity against STZ-induced rat INS-1 832/13 cells assessed as increase in IRS2 mRNA expression at 5 to 20 uM after 24 hrs RT-PCR analysis", "type": "functional, cell-based", "settings": "dose 5-20 µM"}, "INS1(832/13) [21]": {"system": "INS1(832/13)", "test": "Cytoprotective activity against STZ-induced toxicity in rat INS-1 832/13 cells at 20 uM incubated for 24 hrs by MTT assay", "type": "functional, cell-based"}, "INS-1 832/13 [22]": {"system": "INS-1 832/13", "test": "Activation of AKT in STZ-induced rat INS-1 832/13 cells assessed as increase in Akt phosphorylation at 20 uM after 24 hrs by AlphaLISA assay", "settings": "filed as activator"}, "INS-1 832/13 [23]": {"system": "INS-1 832/13", "test": "Activation of AKT in STZ-induced rat INS-1 832/13 cells assessed as increase in Akt phosphorylation at 20 uM after 24 hrs by Western blot analysis", "settings": "filed as activator"}}, "note": "Active and inactive are the calls of the source. Unless noted, no cut-off for these calls is given here."}
{"compound": "CCNCC1=C[C@]2(CC)CCCN3CCc4c(n1c1ccccc41)[C@@H]32", "values": [{"measurement": "Activity", "setting": "INS-1 832/13 [1]", "result": "Active"}, {"measurement": "Activity", "setting": "INS1(832/13) [2]", "result": "Active"}, {"measurement": "EC50", "setting": "INS1(832/13) [3]", "result": 0.27, "unit": "µM"}, {"measurement": "Ratio EC50", "setting": "INS1(832/13) [4]", "result": 2}, {"measurement": "Activity", "setting": "INS1(832/13) [5]", "result": "Active"}, {"measurement": "Activity", "setting": "INS1(832/13) [6]", "result": 24.1, "unit": "%"}, {"measurement": "Activity", "setting": "INS1(832/13) [7]", "result": 31.3, "unit": "%"}, {"measurement": "Activity", "setting": "INS1(832/13) [8]", "result": 29.1, "unit": "%"}, {"measurement": "Activity", "setting": "INS-1 832/13 [9]", "result": "Active"}, {"measurement": "Activity", "setting": "INS-1 832/13 [10]", "result": "Active"}, {"measurement": "Activity", "setting": "INS1(832/13) [11]", "result": "inactive"}, {"measurement": "Activity", "setting": "INS-1 832/13 [12]", "result": "inactive"}, {"measurement": "Activity", "setting": "INS-1 832/13 [13]", "result": "Active"}, {"measurement": "Activity", "setting": "INS-1 832/13 [14]", "result": "Active"}, {"measurement": "Activity", "setting": "INS-1 832/13 [15]", "result": "Active"}, {"measurement": "Activity", "setting": "INS-1 832/13 [16]", "result": "Active"}, {"measurement": "Activity", "setting": "INS-1 832/13 [17]", "result": "Active"}, {"measurement": "Activity", "setting": "INS-1 832/13 [18]", "result": "Active"}, {"measurement": "Activity", "setting": "INS1(832/13) [19]", "result": "Active"}, {"measurement": "Activity", "setting": "INS1(832/13) [20]", "result": "Active"}]}
{"compound": "CC[C@]12CCCN3CCc4c(n(c5ccccc45)[C@@](O)(C(=O)OC)C1)[C@@H]32", "note": "[VINCAMINE]", "values": [{"measurement": "Activity", "setting": "INS1(832/13) [2]", "result": 63, "unit": "%"}, {"measurement": "EC50", "setting": "INS1(832/13) [3]", "result": 11, "unit": "µM"}, {"measurement": "Activity", "setting": "INS1(832/13) [21]", "result": "Active"}, {"measurement": "Activity", "setting": "INS1(832/13) [6]", "result": 28.7, "unit": "%"}, {"measurement": "Activity", "setting": "INS-1 832/13 [22]", "result": "Active"}, {"measurement": "Activity", "setting": "INS-1 832/13 [23]", "result": "Active"}, {"measurement": "Activity", "setting": "INS1(832/13) [11]", "result": "inactive"}, {"measurement": "Activity", "setting": "INS-1 832/13 [12]", "result": "inactive"}]}
